Source: patent publication US8987456B2, “3-pyridyl carboxamide-containing spleen tyrosine kinase (SYK) inhibitors” (Merck Sharp & Dohme Corp., priority 2011, dated 2015)
Read-outs that look alike come from different tables or passages of the source.

What was measured:
[1] = biological target: T1, recombinant human GST-SYK (Homo sapiens, UniProt P43405); assay: Homogeneous Time-Resolved Fluorescence (HTRF) assay for the recombinant human Syk enzyme; type: biochemical; details: 5 pM GST-SYK, 25 μM ATP, 10-dose titration
T1 construct: purchased Carna Biosciences 08-176
Experimental: Biological Assay Homogeneous Time-Resolved Fluorescence (HTRF) Assay for the Recombinant Human Syk Enzyme
A recombinant GST-hSYK fusion protein was used to measure potency of compounds to inhibit human Syk activity. […] Final volume of the reaction was 10 μL. Phosphorylation of the peptide was allowed to proceed for 45′ at room temperature. To quench the reaction and detect the phosphorylated product, 2 nM of a Europium-anti-phosphotyrosine antibody (Perkin Elmer #AD0161) and 70 nM SA-APC (Perkin-Elmer #CR130-100) were added together in 15 mM Tris pH 7.5, 40 mM EDTA, 0.01% tween 20. Final volume of the quenching solution was 10 μL. The resulting HTRF signal was measured after 30 minutes on an EnVision (Perkin-Elmer) reader using a time-resolved fluorescence protocol.

allergic rhinitis [2] = details: dosed intranasally, phase I/II study; cited from earlier work
allergic rhinitis [3] = details: phase II clinical trial; cited from earlier work

IC50 ([1]; read-out: IC50) | IC50 ([1]; read-out: rhSYK Activity) | SMILES | also measured
0.17 µM | 0.1 to 1 µM | Cc1cccc(Nc2cc(NCCN)ncc2C(N)=O)n1 [Example 1.3, 6-[(2-aminoethyl)amino]-4-[(6-methylpyridin-2-yl)amino]pyridine-3-carboxamide] | –
– | 1 to 10 µM | Cc1cc(C)nc(Nc2cc(NCC3(N)CCOC3)ncc2C(N)=O)c1 (racemic) [Example 2.6, 6-{[(3-aminotetrahydrofuran-3-yl)methyl]amino}-4-[(4,6-dimethylpyridin-2-yl)amino]pyridine-3-carboxamide] | –
– | 1 to 10 µM | Cc1cc(C)nc(Nc2cc(N[C@@H]3COC[C@H]3N)ncc2C(N)=O)c1 (relative stereo) [Example 2.4, rel-6-{[(3S,4S)-4-aminotetrahydrofuran-3-yl]amino}-4-[(4,6-dimethylpyridin-2-yl)amino]pyridine-3-carboxamide] | –
– | 0.1 to 1 µM | Cc1cccc(Nc2cc(N[C@@H]3CCCC[C@H]3N)ncc2C(N)=O)n1 (relative stereo) [Example 2.8, rel-6-{[(1R,2R)-2-aminocyclohexyl]amino}-4-[(6-methylpyridin-2-yl)amino]pyridine-3-carboxamide] | –
– | < 0.01 µM | NC(=O)c1cnc(N[C@@H]2CCCC[C@@H]2N)cc1Nc1cccc(-n2nccn2)n1 [Example 1.4, 6-{[(1R,2S)-2-aminocyclohexyl]amino}-4-{[6-(2H-1,2,3-triazol-2-yl)pyridin-2-yl]amino}pyridine-3-carboxamide] | –
– | 0.1 to 1 µM | CCC(C)(N)CNc1cc(Nc2cccc(C)n2)c(C(N)=O)cn1 (racemic) [Example 2.9, 6-[(2-amino-2-methylbutyl)amino]-4-[(6-methylpyridin-2-yl)amino]pyridine-3-carboxamide] | –
0.0045 µM | 0.01 to 0.1 µM | Cc1cccc(Nc2cc(N[C@@H]3CCCC[C@@H]3N)ncc2C(N)=O)n1 [Example 1.2, 6-{[(1R,2S)-2-aminocyclohexyl]amino}-4-[(6-methylpyridin-2-yl)amino]pyridine-3-carboxamide] | –
– | – | Oc1cccc(Nc2ncc(F)c(Nc3cccc(O)c3)n2)c1 [Example R112] | PGD2 (allergic rhinitis [2]): statistically significant decrease; clinical safety (allergic rhinitis [2]): safe across a range of indicators; efficacy versus placebo (allergic rhinitis [3]): lack of efficacy versus placebo
0.0058 µM | < 0.01 µM | NC(=O)c1cnc(N[C@@H]2CCCC[C@@H]2N)cc1Nc1ccc2ccccc2n1 [Example 1.6, 6-{[(1R,2S)-2-aminocyclohexyl]amino}-4-(quinolin-2-ylamino)pyridine-3-carboxamide] | –
– | 0.1 to 1 µM | Cc1cccc(Nc2cc(NCC(N)C3CC3)ncc2C(N)=O)n1 (racemic) [Example 2.12, 6-[(2-amino-2-cyclopropylethyl)amino]-4-[(6-methylpyridin-2-yl)amino]pyridine-3-carboxamide] | –
– | 0.01 to 0.1 µM | Cc1cc(C)nc(Nc2cc(N[C@H]3[C@@H](N)CCCC3(F)F)ncc2C(N)=O)c1 [Example 3.3, 6-{[(1S,6S)-6-amino-2,2-difluorocyclohexyl]amino}-4-[(4,6-dimethylpyridin-2-yl)amino]pyridine-3-carboxamide] | –
– | < 0.01 µM | C[C@H](N)CNc1cc(Nc2cc(-c3cnn(C)c3)cc(-c3cnn(C)c3)n2)c(C(N)=O)cn1 [Example 1.8, 6-{[(2S)-2-aminopropyl]amino}-4-{[4,6-bis(1-methyl-1H-pyrazol-4-yl)pyridin-2-yl]amino}pyridine-3-carboxamide] | –
3.5 µM | 1 to 10 µM | Cc1cc(C)nc(Nc2cc(NCC(N)C(F)(F)F)ncc2C(N)=O)c1 (racemic) [Example 2.3, 6-[(2-amino-3,3,3-trifluoropropyl)amino]-4-[(4,6-dimethylpyridin-2-yl)amino]pyridine-3-carboxamide] | –
– | 0.1 to 1 µM | CCC(N)CNc1cc(Nc2cccc(C)n2)c(C(N)=O)cn1 (centres unmarked) [Example 2.1, 6-[(2-aminobutyl)amino]-4-[(6-methylpyridin-2-yl)amino]pyridine-3-carboxamide] | –
0.51 µM | 0.1 to 1 µM | Cc1cc(C)nc(Nc2cc(N[C@@H]3[C@H](N)CCCC3(F)F)ncc2C(N)=O)c1 [Example 3.2, 6-{[(1R,6R)-6-amino-2,2-difluorocyclohexyl]amino}-4-[(4,6-dimethylpyridin-2-yl)amino]pyridine-3-carboxamide] | –
– | < 0.01 µM | Cc1nc(Nc2cc(NC[C@H](C)N)ncc2C(N)=O)ccc1-c1cnn(C)c1 [Example 1.9, 6-{[(2S)-2-aminopropyl]amino}-4-{[6-methyl-5-(1-methyl-1H-pyrazol-4-yl)pyridin-2-yl]amino}pyridine-3-carboxamide] | –
– | 0.01 to 0.1 µM | Cc1cc(C)nc(Nc2cc(NC[C@H](C)N)ncc2C(N)=O)c1 [Example 3.1, 6-{[(2S)-2-aminopropyl]amino}-4-[(4,6-dimethylpyridin-2-yl)amino]pyridine-3-carboxamide] | –
– | 0.1 to 1 µM | COC[C@H](N)CNc1cc(Nc2cccc(C)n2)c(C(N)=O)cn1 [Example 2.7, 6-{[(2R)-2-amino-3-methoxypropyl]amino}-4-[(6-methylpyridin-2-yl)amino]pyridine-3-carboxamide] | –
0.0035 µM | < 0.01 µM | NC(=O)c1cnc(N[C@@H]2CCCC[C@@H]2N)cc1Nc1cccc(C(F)(F)F)n1 [Example 1.1, 6-{[(1R,2S)-2-aminocyclohexyl]amino}-4-{[6-(trifluoromethyl)pyridin-2-yl]amino}pyridine-3-carboxamide] | –
0.066 µM | 0.01 to 0.1 µM | Cc1nc(Nc2cc(NCCN)ncc2C(N)=O)ccc1Br [Example 2.13, 6-[(2-aminoethyl)amino]-4-[(5-bromo-6-methylpyridin-2-yl)amino]pyridine-3-carboxamide] | –
– | 0.01 to 0.1 µM | Cc1cc(C)nc(Nc2cc(NCCN)ncc2C(N)=O)c1 [Example 2.2, 6-[(2-aminoethyl)amino]-4-[(4,6-dimethylpyridin-2-yl)amino]pyridine-3-carboxamide] | –
– | 0.01 to 0.1 µM | CCCC(N)CNc1cc(Nc2cccc(C)n2)c(C(N)=O)cn1 (racemic) [Example 2.11, 6-[(2-aminopentyl)amino]-4-[(6-methylpyridin-2-yl)amino]pyridine-3-carboxamide] | –
– | 0.01 to 0.1 µM | Cc1nc(Nc2cc(N[C@@H]3CCCC[C@@H]3N)ncc2C(N)=O)ccc1F [Example 1.7, 6-{[(1R,2S)-2-aminocyclohexyl]amino}-4-[(5-fluoro-6-methylpyridin-2-yl)amino]pyridine-3-carboxamide] | –
3.2 µM | 1 to 10 µM | Cc1cc(C)nc(Nc2cc(NC(C)CN)ncc2C(N)=O)c1 (racemic) [Example 2.10, 6-[(2-amino-1-methylethyl)amino]-4-[(4,6-dimethylpyridin-2-yl)amino]pyridine-3-carboxamide] | –

SMILES | IC50 ([1]; read-out: IC50) | IC50 ([1]; read-out: rhSYK Activity) | also measured
Cc1cc(C)nc(Nc2cc(NCC3(N)CCOCC3)ncc2C(N)=O)c1 [Example 2.5] | – | 1 to 10 µM | –
